We go through 6 compounds from patent publication US20100152270A1, “PESTICIDE COMPOSITION COMPRISING A STRIGOLACTONE DERIVATIVE AND A FUNGICIDE COMPOUND” (priority 2007, published 2010).

Holding throughout (format): cell-based
For test [1], the system named is Botrytis cinerea. Nature of the test: Botrytis cinerea microtest in liquid medium (PDB), microtitre plates, optical density. The settings on record: 5 days incubation, 100% = no fungal growth.
The test system of test [2] is Rhizoctonia solani. Kind of test: Rhizoctonia solani microtest in liquid medium (PDB), microtitre plates, optical density. The settings on record: 5 days incubation, 100% = no fungal growth.
Test [3] deals with Pyricularia oryzae. The settings on record: 3 days incubation, 100% = no fungal growth.
The test system of test [4] is Gibberella zeae. The following applies: 3 days incubation, 100% = no fungal growth.

Structures are written as SMILES. Read-outs that look alike come from different tables or passages of the source.

For the compound `OC(Cc1ccccc1Cl)(Cn1nc[nH]c1=S)C1(Cl)CC1` (stereo not shown) [Prothioconazole], the Efficacy in % in test [1] (0.3 ppm) is 40%. Compound `COCC(=O)N(c1c(C)cccc1C)C(C)C(=O)OC` (stereo not shown) [Metalaxyl] gave an Efficacy in % in test [2] (0.001 ppm) of 27%. `CON=C(C(=O)OC)c1ccccc1CON=C(C)c1cccc(C(F)(F)F)c1` [Trifloxystrobin]: the Efficacy in % in test [3] (0.3 ppm) was 58%. `Cc1nn(C)c(F)c1C(=O)Nc1ccccc1C(C)CC(C)C` (stereo not shown) [N-[2-(1,3-Dimethylbutyl)phenyl]-5-fluor-1,3-dimethyl-1H-pyrazol-4-carboxamid] yielded an Efficacy in % in test [1] (0.001 ppm) of 17%. In the case of `CC1=CC(O/C=C2/C(=O)OC3c4ccccc4CC23)OC1=O` (stereo not shown) [Compound A], the Efficacy in % in test [4] (0.0000001 ppm) is listed as 35%; in test [2] (0.0000001 ppm), 26%; in test [1] (0.0000001 ppm), 8%; in test [1] (0.00003 ppm), 1%; in test [3] (0.00003 ppm) it was 4%. `CC(C)(C)C(O)(CCc1ccc(Cl)cc1)Cn1cncn1` (stereo not shown) [Tebuconazole] returned an Efficacy in % in test [4] (0.001 ppm) of 23%.
